In ChEMBL document CHEMBL3039007, “Structure-based identification of OATP1B1/3 inhibitors” (Mol Pharmacol, 2013):
Where “and” joins values, the source holds several entries; their conditions need not be identical. Equal values may be shown once. Residues, ends and D or L forms follow the SMILES beside them.

What was measured:
[1] = biological target: T1, Solute carrier organic anion transporter family member 1B1 (Homo sapiens, UniProt Q9Y6L6); conditions: chinese hamster, cho, 10 µM
T1 sequence (Q9Y6L6 whole entry): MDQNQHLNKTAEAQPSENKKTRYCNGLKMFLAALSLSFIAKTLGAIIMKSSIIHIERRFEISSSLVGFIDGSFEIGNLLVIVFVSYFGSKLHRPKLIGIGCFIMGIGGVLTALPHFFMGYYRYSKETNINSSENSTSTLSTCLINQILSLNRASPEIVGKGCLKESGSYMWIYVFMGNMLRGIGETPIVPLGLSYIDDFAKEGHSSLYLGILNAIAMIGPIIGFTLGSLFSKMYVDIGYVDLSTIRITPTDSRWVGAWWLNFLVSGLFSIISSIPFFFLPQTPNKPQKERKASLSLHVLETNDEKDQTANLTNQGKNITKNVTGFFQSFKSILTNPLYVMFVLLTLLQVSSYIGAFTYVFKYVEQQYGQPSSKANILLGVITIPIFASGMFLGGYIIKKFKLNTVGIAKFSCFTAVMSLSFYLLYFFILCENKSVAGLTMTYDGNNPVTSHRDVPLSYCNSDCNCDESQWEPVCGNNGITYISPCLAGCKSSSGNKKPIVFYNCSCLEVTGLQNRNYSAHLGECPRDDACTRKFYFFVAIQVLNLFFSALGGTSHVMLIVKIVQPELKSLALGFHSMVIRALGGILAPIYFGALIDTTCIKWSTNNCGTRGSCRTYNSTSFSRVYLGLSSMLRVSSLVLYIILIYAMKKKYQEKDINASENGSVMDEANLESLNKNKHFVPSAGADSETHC

[2] = biological target: T2, Solute carrier organic anion transporter family member 1B3 (Homo sapiens, UniProt Q9NPD5); conditions: chinese hamster, cho, 10 µM
T2 sequence (Q9NPD5 whole entry): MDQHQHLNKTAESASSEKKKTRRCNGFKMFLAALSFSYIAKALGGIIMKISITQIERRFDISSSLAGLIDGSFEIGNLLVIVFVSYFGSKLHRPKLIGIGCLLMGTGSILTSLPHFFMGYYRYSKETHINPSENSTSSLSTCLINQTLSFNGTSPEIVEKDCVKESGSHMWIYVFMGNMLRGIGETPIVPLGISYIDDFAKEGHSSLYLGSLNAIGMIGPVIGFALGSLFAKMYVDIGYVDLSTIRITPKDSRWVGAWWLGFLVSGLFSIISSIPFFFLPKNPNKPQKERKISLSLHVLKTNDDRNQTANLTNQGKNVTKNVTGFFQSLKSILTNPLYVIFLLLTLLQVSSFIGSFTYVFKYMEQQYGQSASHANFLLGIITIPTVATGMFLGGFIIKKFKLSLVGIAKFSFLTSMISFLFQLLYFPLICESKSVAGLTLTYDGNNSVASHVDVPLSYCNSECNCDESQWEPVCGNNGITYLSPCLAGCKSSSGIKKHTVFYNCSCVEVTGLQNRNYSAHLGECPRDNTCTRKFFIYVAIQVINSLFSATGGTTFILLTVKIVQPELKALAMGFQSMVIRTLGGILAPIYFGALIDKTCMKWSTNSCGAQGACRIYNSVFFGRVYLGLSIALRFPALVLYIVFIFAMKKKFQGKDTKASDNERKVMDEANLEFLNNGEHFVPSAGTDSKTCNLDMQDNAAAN

Structure (SMILES)	residual activity [1]	residual activity [2]
CC(=O)NCCCCCC(=O)O [ACEXAMIC ACID]	144.2%	111.3%
COc1cccc(-c2cc(=O)c3cc(OC)ccc3o2)c1 [6,3'-DIMETHOXYFLAVONE]	131.7%	120.4%
COc1cc(-c2coc3cc(OCc4ccccc4)c(OC)c(O)c3c2=O)cc(O)c1OC [IRIGENIN, 7-BENZYL ETHER]	60.69%	36.98%
CC1(C)CC[C@]2(C(=O)O)CC[C@]3(C)C(=CC[C@@H]4[C@@]5(C)CC[C@H](O)C(C)(C)[C@@H]5CC[C@]43C)[C@@H]2C1 [OLEANOLIC_ACID]	83.88%	73.61%
CC(C)[C@H](N)C(=O)N[C@@H](Cc1c[nH]c2ccccc12)C(=O)O [VALYLTRYPTOPHAN] (H-Val-Trp-OH)	100.2%	102.8%
CC(=O)Nc1ccc(O)cc1 [ACETAMINOPHEN]	99.98%	96.68%
CC(=O)O[C@H]1CC[C@@]2(C)C(=CC[C@@H]3[C@@H]2CC[C@]2(C)C4C(C[C@@H]32)OC2(CCC(C)CO2)[C@H]4C)C1 (stereo not given in full)	111%	105.4%
COc1cc(O)c2c(=O)c(-c3ccccc3)coc2c1 [5-HYDROXY-7-METHOXYISOFLAVONE]	99.72%	104.3%
CC(C)Cn1c(=O)n(C)c(=O)c2[nH]cnc21 [ISOBUTYLMETHYLXANTHINE]	102.2% and 126.3%	85.37% and 74.61%
CCOC(=O)C1=C[C@]2(CC)CCCN3CCc4c(n1c1ccccc41)[C@@H]32 [VINPOCETINE]	167.7%	109.4%
NC(=O)c1cc[n+](CC2=C(C(=O)[O-])N3C(=O)[C@@H](NC(=O)[C@@H](c4ccccc4)S(=O)(=O)[O-])[C@H]3SC2)cc1.[Na+] [CEFSULODIN SODIUM]	91.84%	101.2%
CC(N)C(O)c1ccc(O)c(O)c1.Cl (stereo not given) [NORDEFRIN HYDROCHLORIDE]	122.3%	103.4%
CC(C(=O)O)c1ccc(C(=O)c2cccs2)cc1 (stereo not given) [SUPROFEN]	108.5%	96.21%
CC1(O)CC2C(CC1O)C2(C)C (stereo not given) [3,4-DIHYDROXYCARANE]	101%	98.2%
Cl.c1ccc(CC2=NCCN2)cc1 [TOLAZOLINE HYDROCHLORIDE]	74.2%	98.49%
CC(C)Oc1ccc2c(=O)c(-c3ccccc3)coc2c1 [IPRIFLAVONE]	137.7%	84.86%
Cc1ccc(C(C)C)c(O)c1C(=O)O [ORTHOTHYMOTINIC ACID]	75.5%	82.08%
COC(=O)C[C@H]1C(C)(C)C(OC(C)=O)[C@]2(O)C=C3C4CC(=O)O[C@@H](c5ccoc5)[C@]4(C)CCC3[C@@]1(C)C2=O (stereo not given in full) [HUMILIN A]	22.34%	34.35%
OC[C@H]1O[C@@H](n2cnc3c(NCc4ccco4)ncnc32)[C@H](O)[C@@H]1O [KINETIN RIBOSIDE]	114.7%	112%
COc1c(C(C)C)oc2cc3oc(=O)ccc3cc12 [PEUCEDANIN]	101.3%	105.2%
c1ccc2c(c1)cc1ccc3cccc4ccc2c1c34	74.44%	70.45%
COc1c2c(cc3c1OCO3)[C@]13C=C[C@H](OC)C[C@H]1N(C2)C[C@@H]3O [AMBELLINE]	91.95%	88.47%
C[C@@H]1C(=O)O[C@H]2[C@H]1CC[C@@]1(C)C=CC(=O)[C@@]3(C)O[C@@]213 [EPOXY (4,5alpha)-4,5-DIHYDROSANTONIN]	91.53%	88.69%

Structure (SMILES)	residual activity [1]	residual activity [2]
CC(C)=CCC[C@@H](C)[C@H]1CC[C@@]2(C)C3=C(CC[C@]12C)[C@@]1(C)CC[C@H](O)C(C)(C)[C@@H]1CC3 [LANOSTEROL]	53.97%	90.91%
CC(=O)CC(=O)CCC(=O)O [SUCCINYLACETONE]	92.01%	94.95%
CC(=O)Oc1ccc(-c2cc(=O)c3c(OC(C)=O)cc(OC(C)=O)cc3o2)cc1 [APIGENIN TRIACETATE]	92.99%	94.69%
C[C@]12CCC(=O)C=C1CCc1ccc(O)cc12 [12-HYDROXY-4,4-BISNOR-4,8,11,13-PODOCARPATETRAEN-3-ONE]	47.54%	82.18%
COc1ccc(C(=O)CC(=O)O)c2c1C=CC(C)(C)O2 [URSINOIC ACID]	116%	105.2%
C[C@H](CCC(=O)O)[C@H]1CC[C@H]2[C@@H]3CC[C@@H]4C[C@H](O)CC[C@]4(C)[C@H]3CC[C@]12C [LITHOCHOLIC ACID]	6.612%	60.21%
OC[C@@H](O)C(O)[C@H](O)CO	121.4%	118.8%
N=C(N)c1ccc(OCCCCCOc2ccc(C(=N)N)cc2)cc1.O=S(=O)(O)CCO	99.74%	156%
COC(=O)[C@@H]1OC(=O)[C@H]2O[C@]23[C@@]2(C)[C@H](CC[C@@]13C)[C@@]1(C)[C@@H](OC(C)=O)C[C@@H](OC(C)=O)C(C)(C)[C@@H]1C[C@@H]2O	66.58%	72.87%
NC(=O)c1ccccc1O [SALICYLAMIDE]	85.6%	94.84%
CO[C@H]1C[C@H](O[C@H]2CC[C@@]3(C)[C@H](CC[C@@H]4[C@@H]3CC[C@]3(C)[C@@H](C5=CC(=O)OC5)[C@@H](OC(C)=O)C[C@]43O)C2)O[C@@H](C)[C@@H]1O [OLEANDRIN]	111.5%	91.7%
CC(=O)O.N=C(N)N/N=C/c1c(Cl)cccc1Cl [GUANABENZ ACETATE]	90.81%	87.6%
CC1(C)C(=O)[C@H]2C[C@]3(O)C4=CC(=O)O[C@@H](c5ccoc5)[C@@]4(C)CCC3[C@](C)(C2=O)[C@H]1CC(=O)O (stereo not given in full) [8-HYDROXYCARAPINIC ACID]	73.89%	78.38%
CC(=O)Nc1cccc(O)c1 [METACETAMOL]	66.39%	79.17%
CC1(C)CC23C(=O)CCC(O)C2(C)CCC13 (stereo not given) [3-NOR-3-OXOPANASINSAN-6-OL]	100.8%	112.2%
CCCC(=O)O[C@]1(C(=O)CO)CC[C@H]2[C@@H]3CCC4=CC(=O)CC[C@]4(C)[C@H]3[C@@H](O)C[C@@]21C [HYDROCORTISONE BUTYRATE]	100.3%	98.06%
CC(=O)O[C@H]1CC[C@@]2(C)[C@H](CC[C@@H]3[C@@H]2CC[C@]2(C)[C@@H]4[C@H](C[C@@H]32)O[C@]2(CC[C@@H](C)CO2)[C@H]4C)C1	103.6%	92.75%
CC(=O)/C=C\[C@@H]1[C@@]2(C)CCCC(C)(C)C2CC[C@@]1(C)O (stereo not given in full) [8-HYDROXY-15,16-BISNOR-11-LABDEN-13-ONE]	71.14%	84.33%
N[C@H](CO)Cc1ccccc1 [L-PHENYLALANINOL]	77.2%	101.5%
Cc1cc(=O)n(-c2ccccc2)n1C [ANTIPYRINE]	79.71%	82.49%
Cc1nnc(NS(=O)(=O)c2ccc(N)cc2)s1 [SULFAMETHIZOLE]	89.01%	100.6%
CC(C)/C(O)=C1/C(=O)O[C@@H](c2ccoc2)[C@]2(C)C(O)[C@@H](O)[C@@]34OC5(C)OC67CC(C)(C(O)[C@]6(O)[C@@H](O)[C@]3(O5)C12)[C@H](CC(=O)O)[C@]74C (stereo not given in full) [HYDROLYSIS PRODUCT OF BUSSEIN]	52.29%	78.08%
